Test results as given in US7705016B2, “Regulation of food intake by modulation of long-chain fatty acyl-CoA levels in the hypothalamus” (Albert Einstein College of Medicine of Yeshiva University, priority 2003, dated 2010).

Legend:
[1] = molecular target: T1, hypothalamic CPT1 (Rattus norvegicus, UniProt P32198); assay: ICV CPTi with or without glybenclamide or liver-selective vagotomy, pancreatic/insulin clamp (Example 4); format: in vivo; design: from tissue; host or cells: hypothalamus of living S-D rats; details: ICV GLY in CON-infused rats (CON-GLY); not shown
T1 sequence (P32198 1-773): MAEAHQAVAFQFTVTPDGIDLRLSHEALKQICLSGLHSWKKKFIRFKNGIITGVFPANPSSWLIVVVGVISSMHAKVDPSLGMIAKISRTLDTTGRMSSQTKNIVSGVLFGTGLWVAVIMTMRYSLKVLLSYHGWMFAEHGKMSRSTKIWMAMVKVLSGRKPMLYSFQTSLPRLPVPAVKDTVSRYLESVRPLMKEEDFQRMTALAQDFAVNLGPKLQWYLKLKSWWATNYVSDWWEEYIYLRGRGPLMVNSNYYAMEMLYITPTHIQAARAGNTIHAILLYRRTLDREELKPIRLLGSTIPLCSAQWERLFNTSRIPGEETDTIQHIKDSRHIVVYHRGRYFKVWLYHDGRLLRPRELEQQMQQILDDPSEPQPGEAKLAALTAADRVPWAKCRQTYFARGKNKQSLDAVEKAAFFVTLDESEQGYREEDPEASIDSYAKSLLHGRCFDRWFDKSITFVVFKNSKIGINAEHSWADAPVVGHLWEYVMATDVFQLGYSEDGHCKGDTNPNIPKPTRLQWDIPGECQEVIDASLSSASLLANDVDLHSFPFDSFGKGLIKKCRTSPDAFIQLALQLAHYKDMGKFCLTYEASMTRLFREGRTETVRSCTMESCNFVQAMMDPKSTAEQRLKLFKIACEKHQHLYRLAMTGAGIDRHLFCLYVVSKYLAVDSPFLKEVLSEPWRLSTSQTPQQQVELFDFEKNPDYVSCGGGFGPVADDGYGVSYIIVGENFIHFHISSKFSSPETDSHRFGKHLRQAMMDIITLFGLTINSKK
Excerpt: Decreasing Hypothalamic Lipid Oxidation Inhibits Endogenous Glucose Production (GP) via stimulation of K-channels (KATP) and Vagus Nerve. Administration either of the long-chain fatty acid (LCFA) oleic acid (OA) or of inhibitors of CPT-1 activity (CPT1) in the third cerebral ventricle (ICV) inhibits GP. Here, we hypothesize that inhibition of hypothalamic lipid oxidation with CPTi decreases GP via central activation of ATP-dependent potassium channels (KATP) leading to increased vagal input to the liver. […] All rats also received an IV infusion of [3-^3H]-glucose for the last 4 hr of ICV infusion and pancreatic/insulin clamp (insulin 1 mU/kg/min; somatostatin […]) during the last 2 hr of each study. In the presence of basal insulin levels, glucose infusion (GIR) was required to prevent hypoglycemia in the CPTi (4.9±1.0 mg/kg/min), but not in the CON (2.1±0.4 mg/kg/min) and CPTi-GLY (1.4±0.5 mg/kg/min) groups. […] To investigate whether this neural pathway acts via the hepatic branch of the vagus nerve, ICV CPTi or CON infusions were also performed in rats receiving liver-selective vagotomy (LV) or sham-operation (SH). GIR was markedly higher in CPTi-SH (4.7±1.3 mg/kg/min) compared with both CON-SH (1.3±0.4 mg/kg/min) and CPTi-LV (0.8±0.5 mg/kg/min). […]

[2] = tested on: KATP; assay: IV lipid infusion with ICV glybenclamide or hepatic vagotomy, pancreatic clamp (Example 4); format: in vivo, rat; details: near basal insulin (~27 μU/ml), groups S+ICVG, IL+ICVC
Method: Hepatic “Autoregulation” in Response to Lipid Infusion Requires Central Stimulation of K-channels (KATP) and Liver Vagal Innervation. […] Since the administration of the LCFA oleic acid in the third cerebral ventricle (ICV) inhibits GP via stimulation of KATP, here we test the hypotheses that: 1) the central activation of KATP by LCFAs restrains GP during lipid infusions, and 2) that this effect requires hepatic vagal input. To this end, 5 h fasted S-D rats were randomized to receive: IV Intralipid+heparin (IL) (increased LCFA levels by ˜3 fold) or saline (S) in combination with ICV Glybenclamide (G) [inhibitor of KATP] or vehicle (C) for 6 h. All rats also received IV infusions of [3-^3H]-glucose for the last 4 h and [U-^14C]-lactate for the last 10 min of the ICV infusion and a pancreatic clamp during the last 2 h of each study. During the clamp period, in the presence of near basal insulin levels (˜27 μU/ml), GP (˜6 mg/kg.min) was unchanged in S+ICVC, S+ICVG or IL+ICVC. […] To examine whether the central effects of LCFA on GP are mediated by vagal stimulation, we next repeated the lipid infusion studies in rats with selective hepatic vagotomy (HV). During the pancreatic clamp period, GP (˜6 mg/kg/min) was similar in S-treated HV and S or IL treated sham-operated rats. Importantly, IL increased GP to 9.7±0.5 (P<0.001) in HV, recapitulating the effect ICVG. […]

[3] = molecular target: T1, hypothalamic CPT1; assay: Food intake after ICV bolus of CPT1 antagonists; format: in vivo; design: CPT1 activity was measured in the particulate fraction of protein extracts from animals treated with ICV control injections; from tissue; host or cells: hypothalamus (arcuate nucleus) of male Sprague-Dawley rats, in vivo or ex vivo; details: single ICV injection
Method: Hypothalamic inhibition of CPT1 decreases food intake. First we examined whether central administration of molecular and pharmacological antagonists of CPT1 modulates feeding behavior in conscious rats (FIG. 3). […] Food intake was monitored in metabolic cages before and up to 72 h after the ICV injections (Obici et al., 2002a). […] The marked effect of ICV CPT1L-Ribo on food intake was significant when compared with either control vector or with an unrelated control ribozyme (FIG. 3c). […] The anorectic effect of central CPT1 inhibition lasted for at least 48 h following a single ICV administration. These decreases in food intake were significant compared with both baseline and vehicle/control (FIG. 3a-e). The changes from baseline induced by CPT1 inhibition were statistically significant at 24 h (−17.6±2.0 g and −12.4±3.9 g), and 48 h (−13.4±1.8 g and −7.8±3.8 g) following ICV administration of CP1L-Ribo and high dose ST 1326, respectively (FIGS. 3b and e). This represented a ˜50% decrease in daily food intake, which returned toward baseline values by 72 h.
(§1) Animal preparation for in vivo experiments. We studied ninety-three 10-week old male Sprague-Dawley rats (Charles River Breeding Laboratories, Wilmington, Mass.). Rats were housed in individual cages and subjected to a standard light-dark cycle. Three weeks prior to the in vivo studies, we placed a chronic catheter in the third cerebral ventricle by stereotaxic surgery (Obici et al., 2002a; Obici et al., 2001; Liu et al., 1998). One week before the pancreatic-insulin clamp protocols, we placed additional catheters in the right internal jugular and left carotid artery (Obici et al., 2001; Liu et al., 1998). All ICV solutions were dissolved in artificial cerebral spinal fluid (aCSF). Food intake was monitored daily.
Effect of central inhibition of CPT1 and food intake. We examined the effects of ICV CPT1L-Ribo and ST 1326 on food intake. Three-hours before the start of the dark cycle, CPT1L-Ribo or vector control, ST 1326 or ST 1340 was injected as a bolus via indwelling catheters implanted in the third cerebral ventricle. In the feeding studies, rats received a single bolus injection of 25 pmoles of ST1340 or two different doses (5 and 25 pmoles) of ST1326. Rats were adapted to the metabolic cages and their daily food intake had been constant (changes <10%) for a minimum of three consecutive days preceding the ICV injections. Food intake was continuously monitored for the following 72 h.

[4] = molecular target: T1, hypothalamic CPT1; assay: ICV infusion with pancreatic-insulin clamp, glucose kinetics (Example 1); format: in vivo; design: CPT1 activity was measured in the particulate fraction of protein extracts from animals treated with ICV control injections; from tissue; host or cells: hypothalamus (arcuate nucleus) of male Sprague-Dawley rats, in vivo or ex vivo; Insulin (iU/ml): unit not given here; details: for Food Intake: measured prior to acute ICV infusion, except CPT1L-Ribo group (3 days after ICV)
Method: Hypothalamic inhibition of CPT1 inhibits glucose production. Experiments were also designed to examine the effect of central inhibition of CPT-1 on whole body insulin action (FIG. 4a,b). Insulin action was assessed by a combination of ICV infusions with systemic pancreatic-insulin clamp studies (FIG. 4b). In these studies, the daily food intake was matched in the rats receiving ICV vector and ICV CPT1L-Ribo (Table 1). All rats also received an intra-arterial infusion of [3-^3H]-glucose for the last 4 hr of ICV infusion and a pancreatic/insulin clamp (insulin 1 mU/kg.min; somatostatin 3 μg/kg/min) during the last 2 hr of the study (Obici et al., 2002a; Obici et al., 2001). As expected in the presence of ˜basal circulating insulin levels (clamp procedure; Table 1), the rate of glucose infusion (GIR) required to maintain euglycemia was marginal in ICV control studies (vector-ST1340- or vehicle-infused animals; ˜0.8 mg/kg/min). By contrast, following ICV infusion of inhibitors of CPT-1 expression or activity glucose had to be infused at the rate of ˜5 mg/kg/min in order to prevent hypoglycemia. Thus, central inhibition of CPT-1 activity in the presence of fixed and basal insulin concentrations stimulates insulin action on glucose homeostasis.
as §1
Measurements of in vivo glucose kinetics and pancreatic-insulin clamp procedure. The infusion studies lasted a total of 360 min (FIG. 3a). Briefly, at t=0 min a primed-continuous ICV infusion of either CPT1 inhibitors or control solution was initiated and maintained for the remainder of the study. 2-tetradecylglydate (TDGA, a gift from Dr. Manuel Guzman) was dissolved in DMSO, diluted into aCSF (Harvard Apparatus) and infused ICV at a rate of 50 pmoles/hr. […] Prior to the pancreatic-insulin clamp studies, rats receiving ICV injection of either CPT1L-Ribo or vector control three days prior to the clamp procedure were randomized into two pair-fed experimental groups. A primed-continuous infusion of HPLC-purified [3-^3H]-glucose (New England Nuclear, Boston, Mass.; 40 μCi bolus, 0.4 μCi/min) was started at t=120 min and continued for the duration of the study (Obici et al., 2002a; Obici et al., 2001; Liu et al., 1998). Finally, a pancreatic-insulin clamp (Obici et al., 2002a; Obici et al., 2001; Liu et al., 1998) was initiated at t=240 min and lasted for 2 hours. This procedure involved the infusion of somatostatin (3 μg/kg/min), insulin (1 mU/kg/min), and glucose as needed to prevent hypoglycemia, or antibodies against C peptide (Linco) and Melanocortin Receptor type 2 (Chemicon). The rate of insulin infusion was designed to replace normal basal levels in postabsorptive rats.
Radioactivity of [^3H]glucose in plasma was measured from supernatants of Ba(OH)2 and ZnSO4 precipitates after evaporation to dryness for the removal of tritiated water (Somogyi pellet). The specific activity of tritiated water in plasma (Somogyi filtrate) was determined from the total counts of the protein-free supernatant before and after evaporation to dryness. Under steady state conditions for plasma glucose concentration, the rate of glucose disappearance (Rd) equals the rate of glucose appearance (Ra). […]

[5] = tested on: rats; details: ICV, equimolar to oleic acid; cited from earlier work

GP [1] | effect on food intake / feeding behavior [3] | Body wt. ([4]; Basal) [g] | FFA ([4]; Basal) [mM] | Glucose ([4]; Basal) [mM] | Insulin ([4]; Basal) [ng/mL] | Leptin ([4]; Basal) [ng/mL] | Food Intake ([4]; Basal) [g] | FFA ([4]; Clamp, steady-state) [mM] | Glucose ([4]; Clamp, steady-state) [mM] | Insulin (iU/ml) ([4]; Clamp, steady-state) | rate of glucose infusion (GIR) required to maintain euglycemia ([4]; pancreatic-insulin clamp, ~basal insulin, ICV infusion) [mg/kg/min] | decrease in glucose production (GP) ([4]; basal and equal insulin levels (~20 μU/ml), ICV) [%] | glucose production (GP) during pancreatic clamp vs ICV vehicle controls ([4]; ~basal insulin concentrations, p<0.01) | Compound | GP during the clamp period [2] [mg/kg.min] | suppressive effects of ICV oleic acid on food intake and on GP, with equimolar administration [5]
did not alter | – | – | – | – | – | – | – | – | – | – | – | – | – | COc1ccc(Cl)cc1C(=O)NCCc1ccc(S(=O)(=O)NC(=O)NC2CCCCC2)cc1 [GLY, glybenclamide] | ~6 | –
– | failed to modify feeding behavior | 307 ± 6 | 0.4 ± 0.1 | 8.0 ± 1.0 | 1.4 ± 0.2 | 0.9 ± 0.2 | 22 ± 3 | 0.4 ± 0.1 | 8.2 ± 0.9 | 25 ± 4 | ~0.8 | – | – | CCCCCCCCCCCCCCNC(=O)N[C@@H](CC(=O)[O-])C[N+](C)(C)C [ST1340, (S)-N-(tetradecylcarbamoyl)-aminocarnitine] | – | –
– | – | 319 ± 10 | 0.5 ± 0.1 | 8.2 ± 0.8 | 1.9 ± 0.1 | 1.7 ± 0.1 | 25 ± 2 | 0.5 ± 0.1 | 8.1 ± 0.5 | 25 ± 3 | – | 47±6 | markedly inhibited GP | CCCCCCCCCCCCCCC1(C(=O)O)CO1 (stereo not shown) [TDGA, 2-tetradecylglydate] | – | –
– | – | – | – | – | – | – | – | – | – | – | – | – | – | CCCCCCCC(=O)O [octanoic acid] | – | not replicated
